How the values were obtained:
[1] = test system: Drosophila melanogaster; test: Survival of wild-type and gnotobiotic / germ free flies exposed to atrazine (FIGS. 5-6); format: in vivo
Protocol: (§1) The immediate and long-term responses of the gut microbiome to the top ten most utilized herbicides in the United States are measured using the model organism Drosophila melanogaster. By utilizing both gnotobiotic and wild-type flies in these perturbations, effects specifically due to the microbiome are isolated. Based on the results of the fly model, compounds are tested in mice in pre-adolescent exposure scenarios and long-term effects. As in the fly, genomic and metabolomics techniques are used. Detailed, life course assays throughout 12-week span would provide an extensive map of the dynamic composition of mammalian gut microbiomes. Identification of microbiome chemical and genetic interactions are obtained by utilizing the collaborative cross mice and also specified microbial compositions. Pesticide-induced changes in behavior are correlated with changes in the microbiome, while controlling for genetic background.
Axenic adult flies are generated and exposures are recapitulated. […] Further, GF flies are fully rescued and wild-type survival curves are restored by feeding flies the bacterial culture prior to exposure. Similar rescue experiments with other microbes are attempted, none of which are rescued.

[2] = test system: Drosophila melanogaster; test: Fly behavioral phenotype after pesticide exposure; format: in vivo; conditions: exposed flies
Description: 1D) Automated behavioral screening in 2D population cages with social affinity, aggression, and mating behavioral quantitative phenotypes. These are ideal because they integrate many aspects of the perturbed animal system, and will allow one skilled in the art to identify subtle neurological phenotypes may be missed by other modalities.
Fly behavioral studies: A 2D cage design with CCD video and fly tracking software is utilized widely by the community (19270697). This techniques enables the automated quantification of social affinity, aggression, and mating behavioral phenotypes.

[3] = test system: Acetobacter in the insect gut; test: Remodeling of the gut microbiome in response to pesticide exposure (FIG. 1); format: in vivo, Drosophila melanogaster; conditions: exposure of flies
Protocol: as §1
AIM 1 Screen 20 most commonly used agricultural pesticides in the United States. Determine which pesticides impact microbiome composition in adult flies, leveraging the viability of germ-free animals and rapid life cycle. Measure the immediate (2 hrs) and long-term (10 days) responses of the microbiome to exposure using methods described below.
1C) 16S-seq and microarray of microbiome before and after perturbation to quantify all microbial species and their transcriptomes. […]

[4] = test system: Drosophila melanogaster; test: Host genome-wide transcription response to chronic pesticide exposure (FIGS. 4-5); format: in vivo; conditions: 2 mM atrazine
Description: 1C) 16S-seq and microarray of microbiome before and after perturbation to quantify all microbial species and their transcriptomes. For treatments with strong effects, sequence the fly gut transcriptome (RNA-seq) to determine gene networks and pathways affected by exposure.

Row | SMILES | survival of exposed germ free (GF) flies vs control flies with wild-type microbiomes ([1]; axenic adult flies) | lethality to the host ([1]; flies, extremely high doses) | susceptibility to toxicity, gnotobiotic flies lacking the atrazine metabolism pathway vs wild-type strains ([1]; gnotobiotic flies vs wild-type strains having the pathway) | behavioral phenotype induced [2] | effect on Acetobacter in the insect gut [3] | host response to exposure (transcription) [4]
1 | CCNc1nc(Cl)nc(NC(C)C)n1 [Atrazine, atrazine] | die earlier than control flies | not deadly at extremely high doses | significantly more susceptible to toxicity | induces a hyperactive phenotype | induce the collapse of Acetobacter | induces an adaptive response associated largely with the transport of lipids
2 | C[n+]1ccc(-c2cc[n+](C)cc2)cc1 [Paraquat, paraquat] |  |  |  |  | induce the collapse of Acetobacter | 

Reference: US11118160B2, “Probiotic composition for enhancing an insects resistance to a pesticide” (The Regents of the University of California, priority 2017, dated 2021)
